What was measured:
male CD-1 mice [1] = experiment: Stress induced fecal output; type: in vivo; conditions: for 0 h (Stools), mean / 0-1 h (Stools), mean / 1-2 h (Stools), mean / 2-4 h (Stools), mean: 50 mg/kg PO, stress induced
Description: The animals used in the studies are male CD-1 mice, average weight about 25 to 35 g, with an average of 5 mice per dose group. The mice were generally housed in colony housing where they are housed 4 per cage in polycarbonate 20 cages with access to food and water ad lib. On the day of the experiment they are transported to the procedure room where they were individually housed in metabolism cage (CAT003) after intragastric administration of Compound D at 50mpk, a reference compound of Formula II (“ORP-101”), and the vehicle alone. Compound D (“ALB-215896”) and the reference compound were each weighed and dissolved in 2.58 ml of de-ion water, mixed by vortex, to prepare the compound D and reference compound solutions at 5 mg/mL.
During the test, the animals were fasted with free access to water. The wire mesh bottomed tall cage creates a novel environment which induces stress in mice. Stool collection and the number of pellets excreted were determined 0, 1, 2, 4 hours after administration. […] Details data of this study is provided below in Table 1.

male CD-1 mice [2] = experiment: Post-inflammatory altered GI transit time (mustard oil), fecal output; type: in vivo; conditions: for 0 h (Stools), mean / 1 h (Stools), mean / 2 h (Stools), mean / 4 h (Stools), mean: 50 mg/kg PO, post-inflammatory
Description: This test was designed to measure the effect of test substance on gastrointestinal hypersensitivity that occurs following inflammation. Post-inflammatory altered GI transit was induced in male CD-1 mice by injecting freshly opened oil of mustard (95% pure allyl isothiocyanate, 0.5% in ethanol). The effect of stress on GI is motility is evaluated 4 weeks later, when although there is no longer inflammation, the GI tract remains in a hypersensitive state. Effect of test substance was measured after oral administration (intragastric gavage) and subjecting the animals to environmental stress by housing them in metabolism cage. During the test, the animals were allowed access to water ad lib. The wire mesh bottomed tall cage creates a novel environment, which induces stress in mice. The number of pellets excreted was determined at 1 h, 2 h and 4 h after administration. Compound D (ALB-215896) and ORP-101 were each weighed and dissolved in 2.58 ml of de-ion water, mixed by vortex, to prepare the compound D and reference compound solutions at 5 mg/mL.

[3] = Metabolic stability in human liver microsomes; type: in vitro ADME
Description: (§1) The metabolic stability of Compound D in SD rat and human liver microsomes were measured One (1) μM of Compound D was incubated with SD rat or human liver microsomes with NADPH in a water bath or tecan at 37° C. for up to 60 min. All samples were monitored using LC-MS/MS.

[4] = Bidirectional permeability in Caco-2 cells; type: in vitro ADME; conditions: human, 120 minutes; for Papp B→A at 120 min, 2 μM: Caco-2, Caco-2, B to A direction, read-out: mean apparent permeability coefficient (Papp), B to A
Description: (§2) The objective of this study was to determine the bidirectional permeability and efflux ratio of compound D in the Caco-2 cells. Caco-2 cells (purchased from ATCC) at passage number 49 were seeded on 96-well transport inserts and cultured for 22 days before being used for the transport experiment. Compound D was dosed bi-directionally at 2 μM. Samples were taken at 0 and 120 minutes after incubation and analyzed by LC-MS/MS. […] Therefore, both the efflux ratios could not be calculated.

Caco-2 cells = experiment: Bidirectional permeability in Caco-2 cells; type: in vitro ADME
Description: as §2

[5] = Metabolic stability in SD rat liver microsomes; type: in vitro ADME
Description: as §1

[6] = 1 μM, NADPH, 37° C., up to 60 min, read-out: half-life (T1/2)
[7] = read-out: intrinsic clearance (CLint(liver))

| Compound | 0 h (Stools), mean (male CD-1 mice [1]) [Stools] | 0-1 h (Stools), mean (male CD-1 mice [1]) [Stools] | 1-2 h (Stools), mean (male CD-1 mice [1]) [Stools] | 2-4 h (Stools), mean (male CD-1 mice [1]) [Stools] | 0 h (Stools), mean (male CD-1 mice [2]) [Stools] | 1 h (Stools), mean (male CD-1 mice [2]; 1 h) [Stools] | 2 h (Stools), mean (male CD-1 mice [2]) [Stools] | 4 h (Stools), mean (male CD-1 mice [2]) [Stools] | Papp B→A at 120 min, 2 μM [4] [×10⁻⁶ cm/s] | further results |
| --- | --- | --- | --- | --- | --- | --- | --- | --- | --- | --- |
| COc1ccc2c3c1O[C@@H]1[C@@]4(OCCOc5ccc6c7c5OC5C8(OC)CC[C@@]9(CC8[C@](C)(O)C(C)(C)C)[C@@H](C6)N(CC6CC6)CCC759)CC[C@@]5(C[C@@H]4[C@](C)(O)C(C)(C)C)[C@@H](C2)N(CC2CC2)CC[C@]315 (stereo in doubt) [Compound D, 2-((4R,4aS,6R,7R,7aR,12bS)-9-(2-(((4R,4aS,6R,7R,7aS,12bS)-9-(Methyloxy)-3-(cyclopropylmethyl)-6-(2-hydroxy-3,3-dimethylbutan-2-yl)-1,2,3,4,5,6 hexahydro-4a,7-ethano-4,12-methanobenzofuro[3,2-e]isoquinolin-7(7aH)yl)oxy)ethoxy)-3-(cyclopropylmethyl)-7-methoxy-1,2,3,4,5,6,7,7a-octahydro-4a,7ethano-4,12-methanobenzofuro[3,2-e]isoquinolin-6-yl)-3,3-dimethylbutan-2-ol] | 0 | 2.4 | 1.4 | 2 | 0.00 | 1.49 | 1.59 | 2.77 | < 0.4 | fecal output versus vehicle and reference compound, in words (male CD-1 mice [1]; oral 50mpk, 1 h, 2 h and 4 h time points): significantly reduced the fecal output; gastrointestinal motility measured by fecal output, in words (male CD-1 mice [2]; 50mpk, 1 h, 2 h, and 4 h time points, post-inflammatory model): significantly decreased gastrointestinal motility; metabolic stability in words [3]: stably metabolized; half-life at 1 μM [3, 6]: 1.37 h; CLint scaled at 1 μM [3, 7]: 15.2 mL/min/kg; Papp A→B at 120 min, 2 μM ([4]; Caco-2, apical to basolateral, 2 μM, read-out: mean apparent permeability coefficient (Papp), A to B): < 0.48 ×10⁻⁶ cm/s; mean apparent permeability coefficient (Papp), B to A (Caco-2 cells; Caco-2, B to A direction, 120 minutes): < 0.5 ×10⁻⁶ cm/s; substrate of transporters (Caco-2 cells; Caco-2, from B to A Papp): poor and no substrate of transporters; permeability classification (Caco-2 cells; across the Caco-2 cell monolayer): low permeability; metabolic stability in words [5]: moderately metabolized; half-life at 1 μM [5, 6]: 1.46 h; CLint scaled at 1 μM [5, 7]: 28.5 mL/min/kg |
| CO[C@]12CC[C@@]3(C[C@@H]1[C@](C)(O)C(C)(C)C)[C@H]1Cc4ccc(OCCOc5ccc6c7c5O[C@H]5C78CCN(CC7CC7)[C@H](C6)[C@]86CC[C@]5(OC)[C@@H]([C@](C)(O)C(C)(C)C)C6)c5c4[C@@]3(CCN1CC1CC1)[C@@H]2O5 [ORP-101, reference compound] | 0 | 3.8 | 3 | 2.8 | 0 | 1.75 | 2.00 | 3.75 | < 0.13 | Papp A→B at 120 min ([4]; Caco-2, apical to basolateral, read-out: mean apparent permeability coefficient (Papp), A to B): < 0.14 ×10⁻⁶ cm/s |

— US20220153739A1, “OPIOID RECEPTOR MODULATOR AND USE THEREOF” (Arriba BioPharma, Inc., priority 2020, published 2022)
